Results published in PubChem BioAssay (NCI).
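Test compounds were applied to cells in 96-well plates for 48 hours at 5 doses. TGI: concentration producing complete growth inhibition.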

Assays:
Experiment in all cases: inhibition of tumour cell growth, NCI panel, 48 h
786-0 renal = test system: 786-0 renal
A498 renal = test system: A498 renal
A549 NSCLC = test system: A549 NSCLC
ACHN renal = test system: ACHN renal
CAKI-1 renal = test system: CAKI-1 renal
CCRF-CEM leukemia = test system: CCRF-CEM leukemia
COLO 205 colon = test system: COLO 205 colon
DLD-1 colon = test system: DLD-1 colon
DMS 114 small cell lung = test system: DMS 114 small cell lung
EKVX NSCLC = test system: EKVX NSCLC
HCC-2998 colon = test system: HCC-2998 colon
HCT-116 colon = test system: HCT-116 colon
HCT-15 colon = test system: HCT-15 colon
HL-60(TB) leukemia = test system: HL-60(TB) leukemia
HOP-18 NSCLC = test system: HOP-18 NSCLC
HOP-92 NSCLC = test system: HOP-92 NSCLC
HT29 colon = test system: HT29 colon
IGROV1 ovarian = test system: IGROV1 ovarian
K-562 leukemia = test system: K-562 leukemia
KM12 colon = test system: KM12 colon
LOX IMVI melanoma = test system: LOX IMVI melanoma
LXFL 529 NSCLC = test system: LXFL 529 NSCLC
M14 melanoma = test system: M14 melanoma
M19-MEL melanoma = test system: M19-MEL melanoma
MALME-3M melanoma = test system: MALME-3M melanoma
MOLT-4 leukemia = test system: MOLT-4 leukemia
NCI-H226 lung = test system: NCI-H226 lung
NCI-H23 lung = test system: NCI-H23 lung
NCI-H460 lung = test system: NCI-H460 lung
NCI-H522 lung = test system: NCI-H522 lung
OVCAR-4 ovarian = test system: OVCAR-4 ovarian
OVCAR-5 ovarian = test system: OVCAR-5 ovarian
OVCAR-8 ovarian = test system: OVCAR-8 ovarian
RPMI-8226 leukemia = test system: RPMI-8226 leukemia
SF-268 CNS = test system: SF-268 CNS
SF-295 CNS = test system: SF-295 CNS
SF-539 CNS = test system: SF-539 CNS
SK-MEL-2 melanoma = test system: SK-MEL-2 melanoma
SK-MEL-28 melanoma = test system: SK-MEL-28 melanoma
SK-MEL-5 melanoma = test system: SK-MEL-5 melanoma
SK-OV-3 ovarian = test system: SK-OV-3 ovarian
SN12C renal = test system: SN12C renal
SNB-75 CNS = test system: SNB-75 CNS
SNB-78 CNS = test system: SNB-78 CNS
SR leukemia = test system: SR leukemia
SW-620 colon = test system: SW-620 colon
TK-10 renal = test system: TK-10 renal
U251 CNS = test system: U251 CNS
UACC-257 melanoma = test system: UACC-257 melanoma
UACC-62 melanoma = test system: UACC-62 melanoma
UO-31 renal = test system: UO-31 renal
DMS 273 small cell lung = test system: DMS 273 small cell lung
HOP-62 NSCLC = test system: HOP-62 NSCLC
KM20L2 colon = test system: KM20L2 colon
OVCAR-3 ovarian = test system: OVCAR-3 ovarian
RXF 393 renal = test system: RXF 393 renal
SNB-19 CNS = test system: SNB-19 CNS

`COc1ccc(/C(=N/O)C(c2ccc(OC)cc2)C2C(=O)Oc3ccccc32)cc1` (configuration not stated) showed a TGI (786-0 renal) of over 100 µM, a TGI (A498 renal) of over 100 µM and a TGI (A549 NSCLC) of over 100 µM. For the same compound, the TGI (ACHN renal) was over 100 µM, the TGI (CAKI-1 renal) was over 100 µM and the TGI (CCRF-CEM leukemia) was over 100 µM. The TGI (COLO 205 colon) was 7.05 µM, the TGI (DLD-1 colon) was over 100 µM and the TGI (DMS 114 small cell lung) was 79.9 µM. For the same compound, the TGI (EKVX NSCLC) was over 100 µM, the TGI (HCC-2998 colon) was over 100 µM and the TGI (HCT-116 colon) was over 100 µM. The TGI (HCT-15 colon) was over 100 µM, the TGI (HL-60(TB) leukemia) was over 100 µM and the TGI (HOP-18 NSCLC) was over 100 µM. The TGI (HOP-92 NSCLC) was 80.6 µM, the TGI (HT29 colon) was over 100 µM and the TGI (IGROV1 ovarian) was over 100 µM. For the same compound, the TGI (K-562 leukemia) was over 100 µM, the TGI (KM12 colon) was over 100 µM and the TGI (LOX IMVI melanoma) was over 100 µM. The TGI (LXFL 529 NSCLC) was over 100 µM, the TGI (M14 melanoma) was over 100 µM and the TGI (M19-MEL melanoma) was over 100 µM. For the same compound, the TGI (MALME-3M melanoma) was over 100 µM, the TGI (MOLT-4 leukemia) was over 100 µM and the TGI (NCI-H226 lung) was over 100 µM. It also gave a TGI (NCI-H23 lung) of over 100 µM, a TGI (NCI-H460 lung) of over 100 µM and a TGI (NCI-H522 lung) of over 100 µM. The TGI (OVCAR-4 ovarian) was over 100 µM, the TGI (OVCAR-5 ovarian) was over 100 µM and the TGI (OVCAR-8 ovarian) was over 100 µM. For the same compound, the TGI (RPMI-8226 leukemia) was over 100 µM, the TGI (SF-268 CNS) was over 100 µM and the TGI (SF-295 CNS) was 11.7 µM. It also gave a TGI (SF-539 CNS) of over 100 µM, a TGI (SK-MEL-2 melanoma) of over 100 µM and a TGI (SK-MEL-28 melanoma) of over 100 µM. For the same compound, the TGI (SK-MEL-5 melanoma) was 68.2 µM, the TGI (SK-OV-3 ovarian) was over 100 µM and the TGI (SN12C renal) was over 100 µM. For the same compound, the TGI (SNB-75 CNS) was over 100 µM, the TGI (SNB-78 CNS) was over 100 µM and the TGI (SR leukemia) was over 100 µM. It also gave a TGI (SW-620 colon) of over 100 µM, a TGI (TK-10 renal) of over 100 µM and a TGI (U251 CNS) of over 100 µM. The TGI (UACC-257 melanoma) was over 100 µM, the TGI (UACC-62 melanoma) was over 100 µM and the TGI (UO-31 renal) was over 100 µM.
In the case of `CCCCCC(=O)N[C@H]1CCc2cc(O)c(O)c(O)c2-c2ccc(SC)c(=O)cc21`, the TGI (786-0 renal) is reported as over 100 µM, the TGI (A498 renal) is reported as 64.1 µM and the TGI (A549 NSCLC) is reported as over 100 µM. The TGI (ACHN renal) was over 100 µM, the TGI (CAKI-1 renal) was 91.6 µM and the TGI (CCRF-CEM leukemia) was over 76.9 µM. The TGI (COLO 205 colon) was 44.5 µM, the TGI (DLD-1 colon) was 40.6 µM and the TGI (DMS 114 small cell lung) was 24 µM. The TGI (DMS 273 small cell lung) was over 100 µM, the TGI (EKVX NSCLC) was over 100 µM and the TGI (HCC-2998 colon) was over 79 µM. It also gave a TGI (HCT-116 colon) of 33 µM, a TGI (HCT-15 colon) of 42.9 µM and a TGI (HL-60(TB) leukemia) of 51.2 µM. It also gave a TGI (HOP-62 NSCLC) of over 100 µM, a TGI (HOP-92 NSCLC) of 90.9 µM and a TGI (HT29 colon) of over 87.1 µM. For the same compound, the TGI (IGROV1 ovarian) was over 100 µM, the TGI (K-562 leukemia) was over 49.9 µM and the TGI (KM12 colon) was over 100 µM. It also gave a TGI (KM20L2 colon) of 53.7 µM, a TGI (LOX IMVI melanoma) of 44.3 µM and a TGI (LXFL 529 NSCLC) of 48.7 µM. The TGI (M14 melanoma) was 36.7 µM, the TGI (M19-MEL melanoma) was 53.1 µM and the TGI (MALME-3M melanoma) was over 100 µM. The TGI (MOLT-4 leukemia) was 90.1 µM, the TGI (NCI-H226 lung) was 72.6 µM and the TGI (NCI-H23 lung) was 55 µM. It also gave a TGI (NCI-H460 lung) of over 100 µM, a TGI (NCI-H522 lung) of 54.5 µM and a TGI (OVCAR-3 ovarian) of 99.6 µM. It also gave a TGI (OVCAR-4 ovarian) of 44.7 µM, a TGI (OVCAR-5 ovarian) of over 100 µM and a TGI (OVCAR-8 ovarian) of over 59.8 µM. The TGI (RPMI-8226 leukemia) was over 100 µM, the TGI (RXF 393 renal) was over 100 µM and the TGI (SF-268 CNS) was over 100 µM. The TGI (SF-295 CNS) was 54.1 µM, the TGI (SF-539 CNS) was 45.3 µM and the TGI (SK-MEL-2 melanoma) was 72.4 µM. For the same compound, the TGI (SK-MEL-28 melanoma) was over 100 µM, the TGI (SK-MEL-5 melanoma) was 75.5 µM and the TGI (SK-OV-3 ovarian) was 66.2 µM. The TGI (SN12C renal) was 42.7 µM, the TGI (SNB-19 CNS) was over 100 µM and the TGI (SNB-75 CNS) was 78.5 µM. The TGI (SNB-78 CNS) was over 100 µM, the TGI (SR leukemia) was 68.8 µM and the TGI (SW-620 colon) was 33.6 µM. It also gave a TGI (TK-10 renal) of over 100 µM, a TGI (U251 CNS) of over 73.8 µM and a TGI (UACC-257 melanoma) of over 75.3 µM. It also gave a TGI (UACC-62 melanoma) of 83.4 µM and a TGI (UO-31 renal) of over 100 µM.
